Source: patent publication US20260217701A1, “SELECTIVE BET INHIBITORS AND USES THEREOF” (Tay Therapeutics Limited, priority 2022, published 2026)
Values joined by “and” are separate entries in the source; they are usually repeats but may differ in a detail not shown here. Identical values can stand only once.

Test system: collagen-induced arthritis
Experiment: Collagen-induced arthritis (CIA) model: clinical scores and paw volume; for Average animal paw volume percent change (%): reference of the scale not given here; for animal paw volume percent change (%): reference of the scale not given here
Format: in vivo, Lewis rats
Conditions: for Average animal paw volume / Average animal paw volume percent change (%) / Animal paw volume percent change (%): group 3 CIA + Dexamethasone; for Animal paw volume percent change (%) / clinical score left forelimb / clinical score left hind limb / clinical score right forelimb / clinical score right hind limb / clinical score, score (all limbs) / Animal paw volume: individual animals; for Overall Clinical Score: individual animals 1-8; for Animal paw volume: Group 3 (CIA + Dexamethasone)
[1] = group 3 CIA+ Dexamethasone, Day 18
[2] = group 3 CIA+ Dexamethasone, Day 19
[3] = group 3 CIA+ Dexamethasone, Day 20

C[C@@H]1C[C@H]2[C@@H]3CCC4=CC(=O)C=C[C@]4(C)[C@@]3(F)[C@@H](O)C[C@]2(C)[C@@]1(O)C(=O)CO [Dexamethasone, dexamethasone]
Average animal paw volume (Day 0, L paw): 1.33 mL
Average animal paw volume percent change (%) (Day 0, L paw): 0.00%
Animal paw volume percent change (%) (Day 0, L paw): 0.00%
Average animal paw volume (Day 0, R paw): 1.33 mL
Average animal paw volume percent change (%) (Day 0, R paw): 0.00%
Animal paw volume percent change (%) (Day 0, R paw): 0.00%
Average detailed clinical score, left forelimb (Day 0, CIA): 0.00
Average detailed clinical score, left hind limb (Day 0, CIA): 0.00
Average detailed clinical score, right forelimb (Day 0, CIA): 0.00
Average detailed clinical score, right hind limb (Day 0, CIA): 0.00
Average detailed clinical score, score (Day 0, CIA): 0.00
Average overall clinical score (Day 0, CIA): 0
clinical score left forelimb (Day 0, CIA): 0
clinical score left hind limb (Day 0, CIA): 0
clinical score right forelimb (Day 0, CIA): 0
clinical score right hind limb (Day 0, CIA): 0
clinical score, score (all limbs) (Day 0, CIA): 0
Overall Clinical Score (Day 0, CIA): 0
Animal paw volume (Day 0, L paw): 1.35 mL and 1.31 mL and 1.39 mL and 1.33 mL and 1.30 mL (2×) and 1.34 mL and 1.36 mL
Animal paw volume (Day 0, R paw): 1.34 mL and 1.30 mL (2×) and 1.38 mL and 1.35 mL and 1.29 mL and 1.36 mL and 1.37 mL
Average animal paw volume (Day 6, L paw): 1.29 mL
Average animal paw volume percent change (%) (Day 6, L paw): -3.37%
Animal paw volume percent change (%) (Day 6, L paw): −2.97% and −1.53% and −3.61% and −3.02% and −3.09% and −3.08% and −4.12% and 5.51%
Average animal paw volume (Day 6, R paw): 1.29 mL
Average animal paw volume percent change (%) (Day 6, R paw): -3.26%
Animal paw volume percent change (%) (Day 6, R paw): −3.00% and 1.16% and −2.91% and −3.72% and −1.56% and −2.70% and −5.90% and −5.13%
Average detailed clinical score, left forelimb (Day 6, CIA): 0.00
Average detailed clinical score, left hind limb (Day 6, CIA): 0.00
Average detailed clinical score, right forelimb (Day 6, CIA): 0.00
Average detailed clinical score, right hind limb (Day 6, CIA): 0.00
Average detailed clinical score, score (Day 6, CIA): 0.00
Average overall clinical score (Day 6, CIA): 0
clinical score left forelimb (Day 6, CIA): 0
clinical score left hind limb (Day 6, CIA): 0
clinical score right forelimb (Day 6, CIA): 0
clinical score right hind limb (Day 6, CIA): 0
clinical score, score (all limbs) (Day 6, CIA): 0
Overall Clinical Score (Day 6, CIA): 0
Animal paw volume (Day 6, L paw): 1.31 mL and 1.29 mL (3×) and 1.34 mL and 1.28 mL
Animal paw volume (Day 6, R paw): 1.30 mL (3×) and 1.28 mL (2×) and 1.34 mL and 1.27 mL
Average animal paw volume (Day 12, L paw): 1.27 mL
Average animal paw volume percent change (%) (Day 12, L paw): -4.94%
Animal paw volume percent change (%) (Day 12, L paw): −10.41% and −7.66% and −1.44% and −3.40% and −1.54% and −6.54% and −3.00% and −5.51%
Average animal paw volume percent change (%) (Day 12, R paw): -5.21%
Animal paw volume percent change (%) (Day 12, R paw): −6.74% and −3.09% and 0.73% and −7.43% and −1.56% and −9.27% and −7.01% and −5.86%
Average detailed clinical score, left forelimb (Day 12, CIA): 0.00
Average detailed clinical score, left hind limb (Day 12, CIA): 0.00
Average detailed clinical score, right forelimb (Day 12, CIA): 0.00
Average detailed clinical score, right hind limb (Day 12, CIA): 0.00
Average detailed clinical score, score (Day 12, CIA): 0.00
Average overall clinical score (Day 12, CIA): 0
clinical score left forelimb (Day 12, CIA): 0
clinical score left hind limb (Day 12, CIA): 0
clinical score right forelimb (Day 12, CIA): 0
clinical score right hind limb (Day 12, CIA): 0
clinical score, score (all limbs) (Day 12, CIA): 0
Overall Clinical Score (Day 12, CIA): 0
Animal paw volume (Day 12, L paw): 1.37 mL and 1.28 mL (2×) and 1.30 mL and 1.29 mL
Animal paw volume (Day 12, R paw): 1.37 mL and 1.27 mL and 1.29 mL
Average animal paw volume (Day 13, L paw): 1.28 mL
Average animal paw volume percent change (%) (Day 13, L paw): -3.57%
Animal paw volume percent change (%) (Day 13, L paw): −8.92% and −5.36% and 0.72% and −3.02% and 0.00% and 4.23% and −2.25% and −5.51%
Average animal paw volume (Day 13, R paw): 1.28 mL
Average animal paw volume percent change (%) (Day 13, R paw): -4.08%
Animal paw volume percent change (%) (Day 13, R paw): −5.99% and −2.32% and 0.36% and −7.43% and −0.78% and −6.95% and −3.69% and 5.86%
Average detailed clinical score, left forelimb (Day 13, CIA): 0
Average detailed clinical score, left hind limb (Day 13, CIA): 0
Average detailed clinical score, right forelimb (Day 13, CIA): 0
Average detailed clinical score, right hind limb (Day 13, CIA): 0
Average detailed clinical score, score (Day 13, CIA): 0
Average overall clinical score (Day 13, CIA): 0
clinical score left forelimb (Day 13, CIA): 0
clinical score left hind limb (Day 13, CIA): 0
clinical score right forelimb (Day 13, CIA): 0
clinical score right hind limb (Day 13, CIA): 0
clinical score, score (all limbs) (Day 13, CIA): 0
Overall Clinical Score (Day 13, CIA): 0
Animal paw volume (Day 13, L paw): 1.40 mL and 1.29 mL (2×) and 1.30 mL and 1.31 mL
Animal paw volume (Day 13, R paw): 1.27 mL and 1.38 mL and 1.28 mL and 1.31 mL and 1.29 mL
Average animal paw volume (Day 14, L paw): 1.27 mL
Average animal paw volume percent change (%) (Day 14, L paw): -4.60%
Animal paw volume percent change (%) (Day 14, L paw): −8.18% and −5.36% and 0.00% and −4.53% and −1.54% and −5.00% and −3.75% and −8.46%
Average animal paw volume percent change (%) (Day 14, R paw): -5.07%
Animal paw volume percent change (%) (Day 14, R paw): −5.62% and −2.70% and 0.00% and −8.92% and −2.33% and −7.72% and −5.17% and −8.06%
Average detailed clinical score, left forelimb (Day 14, CIA): 0
Average detailed clinical score, left hind limb (Day 14, CIA): 0
Average detailed clinical score, right forelimb (Day 14, CIA): 0
Average detailed clinical score, right hind limb (Day 14, CIA): 0
Average detailed clinical score, score (Day 14, CIA): 0
Average overall clinical score (Day 14, CIA): 0
clinical score left forelimb (Day 14, CIA): 0
clinical score left hind limb (Day 14, CIA): 0
clinical score right forelimb (Day 14, CIA): 0
clinical score right hind limb (Day 14, CIA): 0
clinical score, score (all limbs) (Day 14, CIA): 0
Overall Clinical Score (Day 14, CIA): 0
Animal paw volume (Day 14, L paw): 1.39 mL and 1.27 mL and 1.28 mL and 1.29 mL
Animal paw volume (Day 14, R paw): 1.38 mL and 1.29 mL
Average animal paw volume percent change (%) (Day 15, L paw): −5.47%
Animal paw volume percent change (%) (Day 15, L paw): −8.92% and −7.28% and −2.17%
Average animal paw volume percent change (%) (Day 15, R paw): −5.41%
Animal paw volume percent change (%) (Day 15, R paw): −6.74% and −4.25% and 1.45%
Average detailed clinical score, left forelimb (Day 15, CIA): 0
Average detailed clinical score, left hind limb (Day 15, CIA): 0
Average detailed clinical score, right forelimb (Day 15, CIA): 0
Average detailed clinical score, right hind limb (Day 15, CIA): 0
Average detailed clinical score, score (Day 15, CIA): 0
Average overall clinical score (Day 15, CIA): 0
clinical score left forelimb (Day 15, CIA): 0
clinical score left hind limb (Day 15, CIA): 0
clinical score right forelimb (Day 15, CIA): 0
clinical score right hind limb (Day 15, CIA): 0
clinical score, score (all limbs) (Day 15, CIA): 0
Overall Clinical Score (Day 15, CIA): 0
Animal paw volume (Day 15, L paw): 1.36 mL and 1.28 mL and 1.33 mL and 1.27 mL
Animal paw volume (Day 15, R paw): 1.36 mL and 1.27 mL (2×) and 1.32 mL
Average animal paw volume (Day 18, L paw): 1.29 mL
Average animal paw volume percent change (%) (Day 18, L paw): −3.01%
Animal paw volume percent change (%) (Day 18, L paw): −5.20% and −6.51% and 4.33%
Average animal paw volume (Day 18, R paw): 1.29 mL
Average animal paw volume percent change (%) (Day 18, R paw): −3.14%
Animal paw volume percent change (%) (Day 18, R paw): 4.49% and −4.63% and 4.36%
Average detailed clinical score, left forelimb (Day 18, CIA): 0.00
Average detailed clinical score, left hind limb (Day 18, CIA): 0.00
Average detailed clinical score, right forelimb (Day 18, CIA): 0.00
Average detailed clinical score, right hind limb (Day 18, CIA): 0.00
Average detailed clinical score, score (Day 18, CIA): 0.00
Average overall clinical score (Day 18, CIA): 0
Overall Clinical Score (Day 18, CIA): 0
Animal paw volume (Day 18, L paw): 1.28 mL and 1.45 mL and 1.31 mL and 1.29 mL and 1.34 mL and 1.30 mL
Animal paw volume (Day 18, R paw): 1.28 mL and 1.44 mL and 1.31 mL and 1.29 mL (2×) and 1.34 mL
Average animal paw volume (Day 19, L paw): 1.29 mL
Average animal paw volume percent change (%) (Day 19, L paw): −3.33%
Animal paw volume percent change (%) (Day 19, L paw): 5.20% and −6.90%
Average animal paw volume (Day 19, R paw): 1.28 mL
Average animal paw volume percent change (%) (Day 19, R paw): −3.57%
Animal paw volume percent change (%) (Day 19, R paw): −5.24% and −6.18%
Average detailed clinical score, left forelimb (Day 19, CIA): 0.00
Average detailed clinical score, left hind limb (Day 19, CIA): 0.00
Average detailed clinical score, right forelimb (Day 19, CIA): 0.00
Average detailed clinical score, right hind limb (Day 19, CIA): 0.00
Average detailed clinical score, score (Day 19, CIA): 0.00
Average overall clinical score (Day 19, CIA): 0
Overall Clinical Score (Day 19, CIA): 0
Animal paw volume (Day 19, L paw): 1.28 mL (2×) and 1.44 mL and 1.30 mL (2×) and 1.33 mL
Animal paw volume (Day 19, R paw): 1.27 mL (2×) and 1.44 mL and 1.31 mL and 1.32 mL and 1.30 mL
Average animal paw volume (Day 21, L paw): 1.28 mL
Average animal paw volume percent change (%) (Day 21, L paw): −3.56%
Animal paw volume percent change (%) (Day 21, L paw): −6.32% and −6.90%
Average animal paw volume (Day 21, R paw): 1.29 mL
Average animal paw volume percent change (%) (Day 21, R paw): −3.51%
Animal paw volume percent change (%) (Day 21, R paw): −5.99% and −6.18%
Average detailed clinical score, left forelimb (Day 21, CIA): 0.00
Average detailed clinical score, left hind limb (Day 21, CIA): 0.00
Average detailed clinical score, right forelimb (Day 21, CIA): 0.00
Average detailed clinical score, right hind limb (Day 21, CIA): 0.00
Average detailed clinical score, score (Day 21, CIA): 0.00
Average overall clinical score (Day 21, CIA): 0
Overall Clinical Score (Day 21, CIA): 0
Animal paw volume (Day 21, L paw): 1.43 mL and 1.31 mL (2×) and 1.30 mL (2×)
Animal paw volume (Day 21, R paw): 1.43 mL and 1.31 mL and 1.30 mL (2×) and 1.32 mL
clinical score left forelimb [1]: 0
clinical score left hind limb [1]: 0
clinical score right forelimb [1]: 0
clinical score right hind limb [1]: 0
clinical score, score (all limbs) [1]: 0
clinical score left forelimb [2]: 0
clinical score left hind limb [2]: 0
clinical score right forelimb [2]: 0
clinical score right hind limb [2]: 0
clinical score, score (all limbs) [2]: 0
clinical score left forelimb [3]: 0
clinical score left hind limb [3]: 0
clinical score right forelimb [3]: 0
clinical score right hind limb [3]: 0
clinical score, score (all limbs) [3]: 0
